According to article PMC4683533, “Discovery of novel INK4C small-molecule inhibitors to promote human and murine hematopoietic stem cell ex vivo expansion” (Scientific Reports, 2015):

Key:
[1] = test system: human cord blood CD34+ cells (CD34+CD49f+ cells); experiment: human cord blood CD34+ cell ex vivo culture and screen; assay type: cell-based; conditions: dose response, Fig. 4B
Description: Based on our study of murine HSCs, we further tested whether these p18SMIs could expand human cord blood CD34^+ cells in ex vivo culture. […] We cultured human cord blood CD34^+ cells for 7 days in HSCs expansion media in the presence of 200 nM of p18SMIs, and then analyzed the percentage and absolute number of CD34^+CD49f^+ cells by flow cytometry. We screened 40 p18SMIs, of which14 compounds could increase the number of CD34^+CD49f^+ cells compared with the control group (Fig. S6). […] Then we conducted a concentration gradient assay on top three p18SMIs with ED50 less than 10 nM (compounds 22, 40 and 41). […] Only in specific doses could they show their expansion effect on human HSCs (Fig. 4B).
Human cord blood samples were collected from consenting donors according to ethically approved procedures at Tianjin Central Hospital of Gynecology Obstetrics (Tianjin, China), under a protocol approved by the Ethical Committee on Medical Research at the Institute of Hematology. Human CD34^+ cord blood cells were isolated using human CD34 MicroBead Kit (MiltenyiBiotec) according to the manufacturer’s protocol after settling red cells with HES and red cells lysis with ACK Lysis Buffer.
Human CD34^+ cells were cultured in expansion medium consisting of StemSpan SFEM (StemCell Technologies) supplemented with 100 ng/mL human stem cell factor (SCF, PeproTech), 50 ng/mL human thrombopoietin (TPO, PeproTech), 100 ng/mL human FMS-like trysine kinase 3 ligand (Flt3L, PeproTech). Human CD34^+ cells were resuspended in expansion medium (5 × 10^4 cells/mL) before being aliquoted in 96-well plates (Costar, Corning Incorporated). Compounds, all with a final concentration of 200 nM, were dissolved in DMSO and added immediately in cell suspension after plating. The final concentration of DMSO in the control group was the same as in the compounds-treated group. Cells were cultured at 37 °C in 5% CO2. Based on the results of primary screening upon human cells and the results of ED50, we chose three compounds for further experiments. The expansion medium was changed to StemSpan SFEM (StemCell Technologies) supplemented with 100 ng/mL human stem cell factor (SCF, PeproTech), 100 ng/mL human thrombopoietin (TPO, PeproTech), 100 ng/mL human FMS-like trysine kinase 3 ligand (Flt3L, PeproTech) and 100 ng/mL human interleukin-6 (IL-6, PeproTech) for better expansion effect. The incubation condition was consistent with before.
Phenotypes analysis of cultured cells was performed on a BD FACS Array (Becton Dickinson Biosciences) using a combination of the following antibodies: APC anti-CD34 (BD Biosciences), PE anti-CD49f (BD Biosciences). Stained cells were washed once with PBS and then measured and analyzed on an FACS analyzer (FACSArray, BD Biosciences).

[2] = test system: LT-HSCs; design: method as in PMID 25692908; conditions: CDK inhibitor alone; cited from earlier work
[3] = test system: LT-repopulating HSCs (CD34-LKS cells); experiment: competitive bone marrow transplantation (cBMT) assay; assay type: in vivo, mouse
Description: Figure 3 Treatment of c-Kit-enriched murine BM cells with p18SMI compounds enhances HSC expansion. (A) The average number of total cells, HSPCs (Lin^−Sca1^+) and long term (LT)-HSCs (Lin^-Sca1^+CD48^−CD150^+) were analyzed by flow cytometry. (B) Single CD34^−LKS cell were deposited into each well of a 96-well plate, along with differentiation medium plus different concentrations of p18SMI compounds to show the dose-response effect of p18SMI compounds. (C) CAFC-LDA assay of cells treated with XIE18-6, compound 40 and DMSO to reveal the frequency of primitive HSCs. Above data (A–C) is mean ± SEM for all experiments of two or more and were performed in duplicate or triplicate. (D) Experimental design for transplantation (n = 10). CD34^-LKS cells were sorted into 96-well plates at 50 cells/well and cultured for 3 days with cytokine plus 20 μM of compounds or DMSO. Cells from each well were mixed with 2 × 10^6 freshly isolated bone marrow MNCs and co-transplanted by tail-vein injection into lethally irradiated CD45.2 recipient mice. 16 weeks after transplantation, bone marrow MNCs were stained to determine the engraftment level of donor cells. Bone marrow MNCs were also stained for lineage analysis. Multi-lineage differentiation was examined by flow cytometry. GM, T and B indicate lineages for myeloid, T and B cells, respectively. (E,F) The engraftment levels at 16 weeks after primary transplantation, and multi-lineage differentiation profile. Data is mean ± SEM for all experiments (***p < 0.001, **p < 0.01). TEXT PRINTED IN THE PICTURE: (E) #40: Engrafment%: *** 5.93X | (E) XIE18-6: Engrafment%: ** 3.01X DOUBTS OF THE COPYIST ABOUT THIS PICTURE: Panel E: 5.93X and 3.01X are printed on brackets running from #40 and from XIE18-6 to DMSO. No measure is printed beside them, so the axis label 'Engrafment%' was used as the measure.
The increased frequency and total number of functional LT-HSCs after treatment with p18SMI compounds was further confirmed by competitive bone marrow transplantation (cBMT) assay (Fig. 3D). CD34^-LKS cells were first sorted and cultured w/o p18SMI compound for 3 days. Then the cultured cells were gathered and co-transplanted into lethally irradiated mice with competitor cells. […] Moreover, the engraftment of the group treated with compound 40 was double of that of the group treated with XIE18–6.

[4] = test system: HSCs (CD34−LKS cells); experiment: single hematopoietic stem cell in vitro culture (nmEM colony) assay; assay type: cell-based, mouse; conditions: single CD34−LKS cell culture, 14 days, ratio of nmEM wells to DMSO control
Description: We biologically assessed the 22 putative p18SMI compounds for their ability to maintain HSCs stem cell characteristics, to be specific self-renewal and multi-lineage differentiation, using single cell cultures. […] Thus, we employed single HSC culture to assess p18SMI compounds’ effect upon HSCs. CD34^−LKS cells from C57BL/6 mice were individually deposited into a 96-well plate (one cell/well). The single cell was cultured for 14 days in 100 μL of serum-free medium (Gibco) containing 100 ng/mL of mouse stem cell factor (SCF), 10 ng/mL of mouse interleukin-3 (IL-3), 25 ng/mL of human thrombopoietin (TPO), 2 U/mL of human erythropoietin (EPO) and differing concentrations of the p18SMI compound. Cells were cultured 14 days for in vitro colony formation and colonies were then cytospined and analyzed by flow cytometry to test the subpopulation of cultured cells. Neutrophils (n), macrophages (m), erythroblasts (E) or megakaryocytes (M) were identified by the cell marker of Gr-1, Mac-1, Ter-119 and CD41 using flow cytometry. The wells from each group that generated all lineages (nmEM) were counted and the ratio to the control group (DMSO) was calculated.
Single CD34^-LKS cells from C57BL/6 mice were individually deposited into each well of a 96-well plate along with 100 μL of serum free medium (Gibco) containing 100 ng/mL of mouse SCF, 10 ng/mL of mouse IL-3, 25 ng/mL of human TPO, 2 U/mL of human EPO and p18SMI compounds (different dilutions). Cells were cultured in a 37 °C, 5% CO2 incubator for 14 days for ex vivo colony formation. Colonies were then cytospined and analyzed using flow cytometry. Neutrophils (n), macrophages (m), erythroblasts (E) or megakaryocytes (M) were identified based on their cell surface maker, Gr-1, Mac-1, Ter119 and CD41. Cells were measured on an FACS analyzer (FACSArray, BD Biosciences). […] The wells from each group that generated all lineages (nmEM) were counted. The ratio of p18SMI compound treatment group to the control group (DMSO-treated) was calculated and fitted to a curve to calculate the ED50 value using GraphPad Prism v6.0.

[5] = test system: HSCs (bone marrow MNCs); experiment: cobblestone area forming cells (CAFC) assay with limiting dilution assay (LDA); assay type: cell-based, mouse; conditions: day 35
Description: We also investigated whether the increased number of phenotypic SLAM^+LT-HSCs in short-term culture assays was correlated with an increase in functional LT-HSCs. Cobblestone area forming cells (CAFC) assay combined with limiting-dilution assays (LDA) were performed to measure the frequency of HSCs[19][22][30]. Compared with the control group (HSC frequency is 1 in 112,559 of the original plated cells), the frequency of HSC at day 35 (indicating the activity of hematopoietic reconstitution capacity) was 2.7-fold and 3.0-fold higher in the cultures treated with XIE18–6 (HSC frequency is 1 in 42,490 of the original plated cells) and compound 40 (HSC frequency is 1 in 37,524 of the original plated cells) (p < 0.001, Fig. 3C), respectively.
Freshly isolated bone marrow MNCs from mice, 6–8 weeks old, were plated in a 24-well plate with 1 mL Dexter’s medium at a density of 2 × 10^6 cells per mL in the absence or presence of different doses of the tested compounds. The culture was maintained at 33 °C with 5% CO2. The number of cobblestone areas (CAs) was counted weekly. The medium was also replaced with half fresh medium on a weekly basis. For the limiting dilution analysis (LDA) of the test cells, different limiting doses were plated on the irradiated stromal cells in 96-well plates containing 200 μL of M5300 medium (StemCell Technologies) supplemented with 10^−6 M hydrocortisone. Each group was done with 20 replicates well. Small-molecule compounds were added to the co-culture system at different doses. Half of the medium in each well was replaced with fresh medium containing the test compounds weekly. The existence of CA in each well was evaluated under an inverted microscope at weekly intervals for 5 weeks. Based on the Poisson distribution of the negative wells, the frequency of long-term initiating cells was calculated with L-Calc software (StemCell Technologies).

Structure (SMILES) | expansion of human HSCs in concentration gradient assay [1] | maintenance of HSCs population [2] | ED50 (activity to promote the expansion of HSCs) [4] | further results
CC(=O)Nc1ccc(C(=O)Oc2ccc3c(C(C)C)cc(=O)oc3c2)cc1 [Compound 41, 4-Isopropyl-2-oxo-2H-chromen-7-yl 4-acetamidobenzoate] | concentration related |  |  | 
CC(C)(C)c1cnc(CSc2cnc(NC(=O)C3CCNCC3)s2)o1 [SNS032] |  | could not maintain HSCs population |  | 
CC(=O)Nc1ccc(S(=O)(=O)Oc2ccc3c(C)cc(=O)oc3c2)cc1 [XIE18-6] |  |  | 105.5 nM | multi-lineage differentiation profile (GM, T, B) compared with the control group ([3]; 16 weeks after transplantation): did not cause predominant growth of any specific lineages; increase in engraftment compared with the DMSO control group ([3]; CD34-LKS cells cultured 3 days with 20 μM compound, co-transplanted with competitor cells into lethally irradiated mice, bone marrow 16 weeks after transplantation): 3.01 fold; increase in engraftment compared with the uncultured group ([3]; cells cultured 3 days with 20 μM compound, 16 weeks after transplantation): 2.20 fold; HSC frequency (1 in x of the original plated cells) [5]: 42,490; frequency of HSC, fold higher than control group [5]: 2.7 fold
COC(=O)[C@H](NS(=O)(=O)c1ccc(NC(C)=O)cc1)c1ccccc1 [Compound 22] | concentration related |  |  | 
CC(=O)c1c(C)c2cnc(Nc3ccc(N4CCNCC4)cn3)nc2n(C2CCCC2)c1=O [PD0332991] |  | could not maintain HSCs population |  | 
O=C(O)c1ccc(S(=O)(=O)NC2CCCCC2)cc1 [Compound 39, 4-(N-cyclohexylsulfamoyl)benzoic acid] |  |  | 120 nM | 
